“Also recorded” adds a separate entry of the source. Where two headings read alike, the source gives them in different places.
Legend:
Assay type in all cases: cell-based
[1] = test system: proteolyzed ENaC Form 24; assay: membrane potential assay, trypsin-treated ENaC cells; settings: FIG. 8 dose response
Description: After a 1 hour incubation with a dye-protease solution at room temperature, the assay was run using the FDSS (Hamamatsu Corporation) as described above.
The experiment was performed using several treatment groups, each receiving a different concentration of trypsin (0 to 3 mg/ml). The cells were incubated with the trypsin for 1 hour at room temperature concurrently with membrane potential dye (standard protocol). […] We further characterized these proteolytically modified isoforms for their ability to conduct sodium.
The isoform specific assay described above was performed with MBP dye solution with trypsin concentrations as listed (Table 2).

[2] = target: T1, ENaC (Homo sapiens, UniProt P37088+P51168+P51170, A314G); assay: membrane potential assay with stable ENaC cell line (CHO)
T1 construct: expressed in transfected cells
T1 sequence (P37088 1-669): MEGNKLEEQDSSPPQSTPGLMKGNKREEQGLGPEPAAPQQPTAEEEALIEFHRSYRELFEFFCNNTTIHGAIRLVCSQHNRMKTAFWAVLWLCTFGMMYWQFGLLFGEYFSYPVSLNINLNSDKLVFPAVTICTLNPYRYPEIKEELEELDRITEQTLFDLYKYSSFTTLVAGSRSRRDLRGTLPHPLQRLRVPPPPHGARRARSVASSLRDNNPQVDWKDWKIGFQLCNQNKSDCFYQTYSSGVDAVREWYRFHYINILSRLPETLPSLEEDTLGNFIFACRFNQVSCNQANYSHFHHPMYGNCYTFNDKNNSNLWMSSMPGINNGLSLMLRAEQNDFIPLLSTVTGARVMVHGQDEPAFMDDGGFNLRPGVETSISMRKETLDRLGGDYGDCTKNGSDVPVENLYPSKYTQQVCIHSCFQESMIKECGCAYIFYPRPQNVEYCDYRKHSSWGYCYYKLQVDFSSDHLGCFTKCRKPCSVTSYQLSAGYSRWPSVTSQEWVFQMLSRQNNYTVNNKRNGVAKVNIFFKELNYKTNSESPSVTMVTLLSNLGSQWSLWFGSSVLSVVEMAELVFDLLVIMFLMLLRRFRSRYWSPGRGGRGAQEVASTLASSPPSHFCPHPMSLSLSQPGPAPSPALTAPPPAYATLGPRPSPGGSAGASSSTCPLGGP
T1 sequence (P51168 1-640 A314G): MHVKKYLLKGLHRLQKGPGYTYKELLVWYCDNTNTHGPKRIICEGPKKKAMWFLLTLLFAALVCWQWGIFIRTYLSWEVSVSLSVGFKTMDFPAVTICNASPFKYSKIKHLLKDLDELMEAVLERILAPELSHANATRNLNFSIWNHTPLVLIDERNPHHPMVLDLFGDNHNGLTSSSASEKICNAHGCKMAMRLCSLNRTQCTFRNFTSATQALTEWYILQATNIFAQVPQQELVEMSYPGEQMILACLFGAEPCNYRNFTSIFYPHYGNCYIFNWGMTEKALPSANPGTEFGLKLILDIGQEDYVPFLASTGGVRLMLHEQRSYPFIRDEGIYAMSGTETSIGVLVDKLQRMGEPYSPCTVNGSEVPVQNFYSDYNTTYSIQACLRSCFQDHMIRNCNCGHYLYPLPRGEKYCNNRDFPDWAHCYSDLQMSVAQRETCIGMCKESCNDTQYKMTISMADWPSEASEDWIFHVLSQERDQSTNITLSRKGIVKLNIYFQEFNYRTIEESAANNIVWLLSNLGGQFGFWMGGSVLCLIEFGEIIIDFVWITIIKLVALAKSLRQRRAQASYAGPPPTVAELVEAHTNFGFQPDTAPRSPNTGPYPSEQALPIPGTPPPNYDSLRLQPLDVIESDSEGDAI
T1 sequence (P51170 1-649): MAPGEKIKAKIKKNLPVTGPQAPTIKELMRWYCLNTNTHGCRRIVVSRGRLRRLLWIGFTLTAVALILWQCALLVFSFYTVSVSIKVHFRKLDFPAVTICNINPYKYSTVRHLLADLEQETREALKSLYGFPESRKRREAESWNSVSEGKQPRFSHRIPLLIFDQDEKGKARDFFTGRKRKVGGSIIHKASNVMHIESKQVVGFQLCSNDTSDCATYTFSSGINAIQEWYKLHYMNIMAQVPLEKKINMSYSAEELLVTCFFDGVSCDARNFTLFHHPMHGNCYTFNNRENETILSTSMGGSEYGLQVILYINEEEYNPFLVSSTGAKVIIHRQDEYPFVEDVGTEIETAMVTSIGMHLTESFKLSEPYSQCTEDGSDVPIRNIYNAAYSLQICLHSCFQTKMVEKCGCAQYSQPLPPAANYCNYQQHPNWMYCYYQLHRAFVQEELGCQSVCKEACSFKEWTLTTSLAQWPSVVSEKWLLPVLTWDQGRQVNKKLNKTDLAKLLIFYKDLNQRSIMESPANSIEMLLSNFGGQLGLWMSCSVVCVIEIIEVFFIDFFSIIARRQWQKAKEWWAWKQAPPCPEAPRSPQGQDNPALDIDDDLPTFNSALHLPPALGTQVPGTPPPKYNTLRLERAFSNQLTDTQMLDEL
Description: The influx of positively-charged sodium ions following the activation of ENaC results in a change in the membrane potential of the cell. To test the activity of ENaC cell lines, we used a membrane potential assay. Such assays are well known in the art. […] Rev. Biophys. […]
The assay plates were maintained in a 37° C. cell culture incubator under 5% CO2 for 19-21 hours. The media was then removed from the assay plates and 20 μl blue membrane potential dye (Molecular Devices Inc) was added and the cells were incubated for 1 hr at room temperature. Test compounds were solubilized in dimethylsulfoxide, diluted in a phosphate buffer and loaded into 384 well polypropylene micro-titer plates. The cell and compound plates were loaded into an FDSS instrument (Hamamatsu) which measures fluorescence (relative fluorescence units) from the plates over time. Fluorescence values were continuously collected from the beginning of the experiment and following addition of test compounds to report baseline values and any changes due to the addition of test compounds. Test compounds in assay buffer or assay buffer alone were then added to the cells and flluorescence values were collected for two minutes.

[3] = test system: proteolytically cleaved ENaC isoforms; assay: dose response of inhibitors across trypsin concentrations, membrane potential FDSS protocol; settings: FIG. 9, trypsin 0 to 2.25 mg/ml, IC50 plotted against protease concentration
Description: We also tested the ability of novel ENaC inhibitors (identified in Example 4) to inhibit proteolytically cleaved ENaC. […] The cells were loaded with membrane potential dye concurrently with the trypsin. […] values were calculated and plotted as a function of protease concentration. […] The different isoforms of ENaC can be pursed in drug discovery to more effectively address the role of the different isoforms of ENaC or the effect or role of proteolysis in disease.

[4] = ENaC cell line maintained in 90 mM sodium media, read-out: EC50 (approx)
[5] = ENaC cell line maintained in 150 mM sodium media, read-out: EC50 (approx)
[6] = a cell line of the invention, general statement, read-out: EC50

SMILES: N=C(N)NC(=O)c1nc(Cl)c(N)nc1N [Amiloride, amiloride]
- inhibition of cleaved ENaC form 24 [1]: much less effective or not effective; also recorded: not effective to inhibit Form 24
- block of the sodium response [2]: essentially all of the sodium response was blocked
- inhibition of uncleaved (non-proteolyzed) ENaC [2]: effectively inhibits; also recorded: almost completely inhibit
- inhibition of proteolytically cleaved ENaC isoforms [3]: inhibit a unique subset of ENaC isoforms

SMILES: [Cl-].[Li+] [LiCl, lithium chloride]
- EC50 [2, 4]: ~33 mM
- EC50 [2, 5]: ~82 mM
- EC50 [2, 6]: ~35 mM

SMILES: [Cl-].[Na+] [NaCl, sodium chloride]
- EC50 [2, 4]: ~48 mM
- EC50 [2, 5]: ~80 mM
- EC50 ([2]; FIG. 4, read-out: EC50): 48 mM
- EC50 [2, 6]: ~50 mM

— US9534035B2, “Cell lines expressing ENaC and methods using them” (priority 2008, dated 2017)
